Experimental data: patent publication US5643776A, “Insect diagnostic and control compositions” (The Regents of the University of California, priority 1992, dated 1997)

Assays:
[1] = target: T1, juvenile hormone esterase (JHE) of Heliothis virescens, wild type (Heliothis virescens, UniProt P12992); experiment: Kinetics of juvenile hormone hydrolysis by juvenile hormone esterase; format: biochemical
T1 sequence (P12992 20-564): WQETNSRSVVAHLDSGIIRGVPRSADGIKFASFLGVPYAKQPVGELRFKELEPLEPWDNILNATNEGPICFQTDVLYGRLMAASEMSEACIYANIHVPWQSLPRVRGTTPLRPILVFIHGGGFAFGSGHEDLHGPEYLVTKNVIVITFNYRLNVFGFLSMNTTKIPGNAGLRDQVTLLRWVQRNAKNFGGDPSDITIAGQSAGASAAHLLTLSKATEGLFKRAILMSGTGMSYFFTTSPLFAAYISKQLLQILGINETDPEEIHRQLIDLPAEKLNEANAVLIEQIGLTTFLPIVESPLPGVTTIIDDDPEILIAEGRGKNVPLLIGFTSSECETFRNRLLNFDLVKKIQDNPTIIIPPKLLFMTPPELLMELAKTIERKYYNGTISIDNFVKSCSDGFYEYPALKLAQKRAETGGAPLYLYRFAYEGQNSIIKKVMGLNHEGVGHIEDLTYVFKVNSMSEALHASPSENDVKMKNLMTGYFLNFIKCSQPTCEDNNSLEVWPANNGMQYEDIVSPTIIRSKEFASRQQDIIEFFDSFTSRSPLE

[2] = target: T2, juvenile hormone hemolymph carrier protein of H. virescens (Heliothis virescens, UniProt Q25175); experiment: Binding of juvenile hormone by the hemolymph carrier protein; settings: juvenile hormone bound by the carrier protein; for H. virescens
T2 sequence (Q25175 19-242): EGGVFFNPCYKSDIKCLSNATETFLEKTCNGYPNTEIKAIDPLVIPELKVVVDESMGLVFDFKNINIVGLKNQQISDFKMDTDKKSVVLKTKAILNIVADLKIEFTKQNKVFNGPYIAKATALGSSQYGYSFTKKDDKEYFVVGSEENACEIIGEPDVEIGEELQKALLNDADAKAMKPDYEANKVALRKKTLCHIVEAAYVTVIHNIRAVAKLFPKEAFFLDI

## juvenile hormone
[1]; substrate JH, JHE of H. virescens and of several other species
  kCAT/KM ratio: > 10^8
[1]; substrate juvenile hormone
  Km: 0.06 µM
[2]
  Kd: 610 nM
